ChEMBL document CHEMBL2311340, “Chemical constituents from the fruit of Gardenia jasminoides and their inhibitory effects on nitric oxide production” (Bioorg Med Chem Lett, 2013)

Test system: RAW264.7
Assay: Inhibition of nitric oxide production in lipopolysaccharide-activated mouse RAW264.7 cells by Griess reaction based method
Type: functional, cell-based

IC50 [µM]	SMILES
28.7	COC(=O)C1=CO[C@@H](O)[C@@H]2C(CO)=C[C@@H](O)[C@H]12
> 100	COC(=O)C1=CO[C@@H](O[C@@H]2O[C@H](CO)[C@@H](O)[C@H](O)[C@H]2O)[C@@H]2C(CO)=C[C@@H](O)[C@H]12
5.99	CC(/C=C/C=C(\C)C(=O)O)=C\C=C\C=C(C)\C=C\C=C(/C)C(=O)O [TRANSCROCETIN]
> 100	CC1=CC(=O)CC(C)(C)[C@H]1CO[C@@H]1O[C@H](CO[C@@H]2OC[C@](O)(CO)[C@H]2O)[C@@H](O)[C@H](O)[C@H]1O [JASMINOSIDE T]
> 100	COC(=O)C1=CO[C@@H](O[C@@H]2O[C@H](CO)[C@@H](O)[C@H](O)[C@H]2O)[C@@H]2C(CO[C@@H]3O[C@H](CO)[C@@H](O)[C@H](O)[C@H]3O)=CC[C@H]12 [GENAMESIDE D]
> 100	CC(/C=C/C=C(\C)C(=O)O[C@@H]1O[C@H](CO)[C@@H](O)[C@H](O)[C@H]1O)=C\C=C\C=C(C)\C=C\C=C(/C)C(=O)O[C@@H]1O[C@H](CO[C@@H]2O[C@H](CO)[C@@H](O)[C@H](O)[C@H]2O)[C@@H](O)[C@H](O)[C@H]1O
> 100	COC(=O)C1=CO[C@@H](O[C@@H]2O[C@H](CO)[C@@H](O[C@@H]3O[C@H](CO)[C@@H](O)[C@H](O)[C@H]3O)[C@H](O)[C@H]2O)[C@@H]2C(CO)=CC[C@H]12 [GENAMESIDE C]
> 100	COC(=O)C1=CO[C@@H](O[C@@H]2O[C@H](CO[C@@H]3O[C@@H](C)[C@H](O)[C@@H](O)[C@H]3O)[C@@H](O)[C@H](O)[C@H]2O)[C@@H]2C(CO)=CC[C@H]12
> 100	CC1=C(C(=O)O[C@@H]2O[C@H](CO[C@@H]3O[C@H](CO)[C@@H](O)[C@H](O)[C@H]3O)[C@@H](O)[C@H](O)[C@H]2O)C(C)(C)CCC1 [JASMINOSIDE S]
> 100	CC1=C(C(=O)O[C@@H]2O[C@H](CO[C@@H]3O[C@H](CO)[C@@H](O)[C@H](O)[C@H]3O)[C@@H](O)[C@H](O)[C@H]2O)C(C)(C)CC=C1 [JASMINOSIDE R]
> 100	COC(=O)C1=CO[C@@H](O[C@@H]2O[C@H](CO[C@@H]3O[C@H](COC(=O)/C=C/c4ccc(O)c(O)c4)[C@@H](O)[C@H](O)[C@H]3O)[C@@H](O)[C@H](O)[C@H]2O)[C@@H]2C(CO)=CC[C@H]12
> 100	CC(/C=C/C=C(\C)C(=O)O[C@@H]1O[C@H](CO[C@@H]2O[C@H](CO)[C@@H](O)[C@H](O)[C@H]2O)[C@@H](O)[C@H](O)[C@H]1O)=C\C=C\C=C(C)\C=C\C=C(/C)C(=O)O[C@@H]1O[C@H](CO[C@@H]2O[C@H](CO)[C@@H](O)[C@H](O)[C@H]2O)[C@@H](O)[C@H](O)[C@H]1O [CROCIN]
> 100	COC(=O)C1=CO[C@@H](O[C@@H]2O[C@H](CO[C@@H]3OC[C@](O)(CO)[C@H]3O)[C@@H](O)[C@H](O)[C@H]2O)[C@@H]2C(CO)=CC[C@H]12
> 100	COC(=O)C1=CO[C@@H](O[C@@H]2O[C@H](CO[C@H]3OC[C@@H](O)[C@H](O)[C@H]3O)[C@@H](O)[C@H](O)[C@H]2O)[C@@H]2C(CO)=CC[C@H]12
> 100	COC(=O)C1=CO[C@@H](O[C@@H]2O[C@H](CO[C@H]3O[C@H](CO)[C@@H](O)[C@H](O)[C@H]3O)[C@@H](O)[C@H](O)[C@H]2O)[C@@H]2C(CO)=CC[C@H]12
> 100	COC(=O)C1=CO[C@@H](O[C@@H]2O[C@H](CO[C@@H]3O[C@H](CO)[C@@H](O)[C@H](O)[C@H]3O)[C@@H](O)[C@H](O)[C@H]2O)[C@@H]2C(CO)=CC[C@H]12 [GENIPIN GENTIOBIOSIDE]
11.1	COC(=O)C1=CO[C@@H](O)[C@@H]2C(CO)=CC[C@H]12 [GENIPIN]

SMILES	IC50 [µM]
COC(=O)C1=CO[C@@H](O[C@@H]2O[C@H](CO)[C@@H](O)[C@H](O)[C@H]2O)[C@@H]2C(CO)=CC[C@H]12 [GENIPOSIDE]	> 100
